Patent publication US20100086483A1, “METHOD OF MULTIDETECTOR COMPUTED TOMAGRAPHY” (Gilead Palo Alto, Inc., priority 2008, published 2010)

Columns and labels:
conscious dogs = assay: Effects of caffeine on regadenoson-induced coronary vasodilation and changes in hemodynamics in conscious dogs (Part II); type: in vivo, dog; conditions: for change of maximum increase in CBF induced by regadenoson vs control: regadenoson 5 μg/kg IV, p>0.05
Experimental: Sixteen chronically instrumented male mongrel dogs weighing from 22-30 kg were used in the study. The animal protocol was approved by the Institutional Animal Care and Use Committee of New York Medical College and conforms to the Guide for the Care and Use of Laboratory Animal by the United States National Institutes of Health.
Dogs were sedated with acepromazine (0.3 mg/kg, IM) and anesthetized with pentobarbital sodium (25 mg/kg, IV). After intubation, dogs were artificially ventilated with room air. A thoracotomy was made in the fifth intercostal space using sterile techniques. A Tygon catheter (Cardiovascular Instruments, Wakefield, Mass.) was inserted into the descending thoracic aorta and another one was inserted into the left atrium. In 9 dogs, an ultrasound flow transducer (Transonic Systems, Ithaca, N.Y.) was placed around the left circumflex coronary artery. A solid-state pressure gauge (P6.5, Konisberg Instruments, Pasadena, Calif.) was placed into the left ventricle through the apex. The chest was closed in layers. The catheters and wires were tunneled subcutaneously and externalized through the skin at the back of the dog's neck. Dogs were allowed to recover from the surgery before experiments were performed, and were trained to lie on a table.
Phasic arterial pressure was measured by connecting the aortic catheter to a strain gauge transducer (P23 ID, LDS Test and Measurement, Valley View, Ohio). Left ventricular pressures were measured by the solid pressure gauge. CBF (mL/min) was measured from an ultrasound flow transducer using a Transonic flowmeter (T206, Transonic Systems, Ithaca, N.Y.). Two indices were used to describe the regadenoson-induced coronary vasodilation: 1) the maximum increase in CBF and 2) the duration of the 2-fold increase in CBF (the period of time that CBF was elevated to a level ≧2-fold of baseline CBF). All pressure and flow data were acquired and analyzed using a Ponemah System (Version 3.30 or 4.20, LDS Test and Measurement, Valley View, Ohio). MAP and HR were calculated from phasic blood pressure, and LV dP/dtMax was calculated from the left ventricular systolic pressure.
On the day of an experiment, a dog was placed on a table, where it lay quietly during the experiment. A catheter was inserted into a peripheral vein in the leg and attached to an infusion line to administer drugs without disturbing the dog. The experiment was begun after MAP, HR and CBF were stable.
(§1) Each dog received an IV injection of 5 μg/kg of regadenoson. […] LVSP, LV dP/dtMax, MAP, HR and CBF were recorded continuously. Blood samples were taken from the left atrial catheter at 1, 3, 5, 15, 30, 45 and 60 min following injections of regadenoson.
In 4 dogs, two doses of regadenoson (5 μg/kg, IV) were given 90 min apart (without blood sampling) to determine if there is tachyphylaxis of regadenoson-induced coronary vasodilation.
The statistical significance of a difference between the value of a parameter at baseline and at the indicated time point after drug administration was determined using a One-Way Repeated Measures ANOVA followed by Tukey's Test. […] Results with p<0.05 were considered to be significant. […] All data are presented as Mean±SEM.

[1] = Plasma caffeine concentrations in conscious dogs; type: in vivo; conditions: dog, intravenous, 10 mg/kg
Experimental: Three experiments were performed on each dog in the group.
as §1

[2] = regadenoson 5 μg/kg IV 45 min after caffeine 1 mg/kg IV, 1 min
[3] = regadenoson 5 μg/kg IV 45 min after caffeine 1 mg/kg IV, 2 min
[4] = regadenoson 5 μg/kg IV 45 min after caffeine 1 mg/kg IV, 3 min
[5] = regadenoson 5 μg/kg IV 45 min after caffeine 1 mg/kg IV, 20 min
[6] = regadenoson 5 μg/kg IV 45 min after caffeine 2 mg/kg IV, 1 min

Compound `Cn1c(=O)c2c(ncn2C)n(C)c1=O` [Caffeine, caffeine] has an HR (conscious dogs; 45 min after caffeine 1 mg/kg IV, before regadenoson (baseline)) of 74 ± 5 bpm, an HR (conscious dogs; 45 min after caffeine 2 mg/kg IV, before regadenoson (baseline)) of 75 ± 5 bpm and an HR (conscious dogs; 45 min after caffeine 4 mg/kg IV, before regadenoson (baseline)) of 81 ± 9 bpm. The HR (conscious dogs; 45 min after caffeine 10 mg/kg IV, before regadenoson (baseline)) was 78 ± 6 bpm, the “baseline CBF before vs after caffeine treatment” value (conscious dogs; 45 min after caffeine 1, 2, 4 and 10 mg/kg) was “not significantly different” and the “change of maximum increase in CBF induced by regadenoson vs control” value (from here on “change of maximum increase”) (conscious dogs; caffeine 1 mg/kg IV) was 2±3%. The “change of maximum increase” value (conscious dogs; caffeine 2 mg/kg IV) was −0.7±3%, the “change of maximum increase” value (conscious dogs; caffeine 4 mg/kg IV) was −16±5% and the “change of maximum increase” value (conscious dogs; caffeine 10 mg/kg IV) was −13±8%. The “effect on hemodynamics at 45 min following caffeine administration” value (conscious dogs; caffeine at 1, 2, 4 or 10 mg/kg) was “did not alter hemodynamics significantly”, the “regadenoson-induced increase in LV dP/dtMax vs without caffeine” value (conscious dogs; in the presence of caffeine 1 mg/kg) was “slightly greater” and the “regadenoson-induced increase in LV dP/dtMax vs without caffeine” value (conscious dogs; in the presence of caffeine 10 mg/kg) was “not altered”. For the same compound, the “regadenoson-induced increase in LV dP/dtMax vs without caffeine” value (conscious dogs; in the presence of caffeine at 2 and 4 mg/kg) was “slightly smaller”, the HR (conscious dogs; regadenoson 5 μg/kg IV 45 min after caffeine 1 mg/kg IV, 0.5 min) was 126 ± 7 bpm and the HR (conscious dogs; [2]) was 135 ± 9 bpm. It also gave an MAP (conscious dogs; [2]) of 100 ± 4 mm Hg, an HR (conscious dogs; [3]) of 131 ± 12 bpm and an MAP (conscious dogs; [3]) of 102 ± 4 mm Hg. It also gave an HR (conscious dogs; [4]) of 119 ± 9 bpm, an MAP (conscious dogs; [4]) of 101 ± 5 mm Hg and an HR (conscious dogs; regadenoson 5 μg/kg IV 45 min after caffeine 1 mg/kg IV, 4 min) of 110 ± 4 bpm. For the same compound, the HR (conscious dogs; regadenoson 5 μg/kg IV 45 min after caffeine 1 mg/kg IV, 5 min) was 106 ± 7 bpm, the HR (conscious dogs; regadenoson 5 μg/kg IV 45 min after caffeine 1 mg/kg IV, 10 min) was 89 ± 7 bpm and the HR (conscious dogs; regadenoson 5 μg/kg IV 45 min after caffeine 1 mg/kg IV, 15 min) was 87 ± 7 bpm. For the same compound, the HR (conscious dogs; [5]) was 81 ± 8 bpm, the MAP (conscious dogs; [5]) was 102 ± 4 mm Hg and the HR (conscious dogs; regadenoson 5 μg/kg IV 45 min after caffeine 2 mg/kg IV, 0.5 min) was 121 ± 10 bpm. It also gave an HR (conscious dogs; [6]) of 125 ± 10 bpm, an MAP (conscious dogs; [6]) of 102 ± 7 mm Hg and an HR (conscious dogs; regadenoson 5 μg/kg IV 45 min after caffeine 2 mg/kg IV, 2 min) of 122 ± 5 bpm. The HR (conscious dogs; regadenoson 5 μg/kg IV 45 min after caffeine 2 mg/kg IV, 3 min) was 110 ± 3 bpm, the HR (conscious dogs; regadenoson 5 μg/kg IV 45 min after caffeine 2 mg/kg IV, 4 min) was 106 ± 4 bpm and the HR (conscious dogs; regadenoson 5 μg/kg IV 45 min after caffeine 2 mg/kg IV, 5 min) was 97 ± 3 bpm. For the same compound, the HR (conscious dogs; regadenoson 5 μg/kg IV 45 min after caffeine 2 mg/kg IV, 10 min) was 84 ± 5 bpm, the HR (conscious dogs; regadenoson 5 μg/kg IV 45 min after caffeine 2 mg/kg IV, 15 min) was 85 ± 6 bpm and the HR (conscious dogs; regadenoson 5 μg/kg IV 45 min after caffeine 2 mg/kg IV, 20 min) was 84 ± 5 bpm. The HR (conscious dogs; regadenoson 5 μg/kg IV 45 min after caffeine 4 mg/kg IV, 0.5 min) was 126 ± 12 bpm, the HR (conscious dogs; regadenoson 5 μg/kg IV 45 min after caffeine 4 mg/kg IV, 1 min) was 114 ± 11 bpm and the HR (conscious dogs; regadenoson 5 μg/kg IV 45 min after caffeine 4 mg/kg IV, 2 min) was 106 ± 12 bpm. The HR (conscious dogs; regadenoson 5 μg/kg IV 45 min after caffeine 4 mg/kg IV, 3 min) was 102 ± 7 bpm, the HR (conscious dogs; regadenoson 5 μg/kg IV 45 min after caffeine 4 mg/kg IV, 4 min) was 94 ± 8 bpm and the HR (conscious dogs; regadenoson 5 μg/kg IV 45 min after caffeine 4 mg/kg IV, 5 min) was 94 ± 7 bpm. The HR (conscious dogs; regadenoson 5 μg/kg IV 45 min after caffeine 4 mg/kg IV, 10 min) was 85 ± 8 bpm, the HR (conscious dogs; regadenoson 5 μg/kg IV 45 min after caffeine 4 mg/kg IV, 15 min) was 85 ± 8 bpm and the HR (conscious dogs; regadenoson 5 μg/kg IV 45 min after caffeine 4 mg/kg IV, 20 min) was 87 ± 7 bpm. The HR (conscious dogs; regadenoson 5 μg/kg IV 45 min after caffeine 10 mg/kg IV, 0.5 min) was 115 ± 12 bpm, the HR (conscious dogs; regadenoson 5 μg/kg IV 45 min after caffeine 10 mg/kg IV, 1 min) was 102 ± 6 bpm and the HR (conscious dogs; regadenoson 5 μg/kg IV 45 min after caffeine 10 mg/kg IV, 2 min) was 106 ± 11 bpm. It also gave an HR (conscious dogs; regadenoson 5 μg/kg IV 45 min after caffeine 10 mg/kg IV, 3 min) of 96 ± 7 bpm, an HR (conscious dogs; regadenoson 5 μg/kg IV 45 min after caffeine 10 mg/kg IV, 4 min) of 94 ± 8 bpm and an HR (conscious dogs; regadenoson 5 μg/kg IV 45 min after caffeine 10 mg/kg IV, 5 min) of 93 ± 5 bpm. It also gave an HR (conscious dogs; regadenoson 5 μg/kg IV 45 min after caffeine 10 mg/kg IV, 10 min) of 88 ± 7 bpm, an HR (conscious dogs; regadenoson 5 μg/kg IV 45 min after caffeine 10 mg/kg IV, 15 min) of 88 ± 6 bpm and an HR (conscious dogs; regadenoson 5 μg/kg IV 45 min after caffeine 10 mg/kg IV, 20 min) of 86 ± 4 bpm. The concentration at 45 min [1] was 52 ± 2 µM.
